Data on 14 compounds can be found in PMC5884943, “Discovery of Novel Inhibitors of Indoleamine 2,3-Dioxygenase 1 Through Structure-Based Virtual Screening” (Frontiers in Pharmacology, 2018).

Read-outs that look alike come from different tables or passages of the source.

One test deals with IDO1. Conditions: Figure 1, published IDO1 inhibitors, cited from earlier work.
The target of a further test is T1, human IDO1 protein (Homo sapiens, UniProt P14902).
T1 construct: purchased ChemPartner Lot; No. 20160706
In words: Enzymatic IDO1 assay (Absorbance 321 assay). The class given is biochemical. Conditions: for inhibition at 20 µM: 20 μM compound, read-out: Inhibition ratio (%) @ 20 μM; for Avg_Inh (%) @ 50uM: average inhibition, Table S2; for IC50: IDO1 enzymatic level; for Background (%): background signal of the compound in the absorbance assay. The procedure: The standard assay mixture contained modified potassium phosphate buffer at pH 6.5, 100 μM L-tryptophan (Sigma, Cat. […] No. […]). […] Then the assay plate was read at OD321 kinetically in Spectramax. […] Fit the data in […]5.0 software to obtain IC50-values using Equation (2): (2) Y=Bottom+Top-Bottom/1+10^(logIC50-X)×HillSlope where Y stands for inhibition percentage and X stands for compound concentration. All determinations were carried out in duplicate.

For another test, the target named is T2, IDO1 in HeLa cells (Homo sapiens, UniProt P14902).
T2 construct: endogenous in cells; host or cells: HeLa (ATCC CCL-2), stimulated with recombinant human IFN-γ
The test is described as follows: HeLa cellular IDO1 assay (kynurenine OD 480 nm after IFN-γ). Format: cell-based. Conditions: IDO1 inhibition in HeLa cells, 48 h. The procedure: We chose HeLa cell line (ATCC, Cat. No. CCL-2, 4965442) to detect whether our compounds could inhibit IDO activity at cellular level by optical density (OD) assay. The assay was performed in 96-well flat bottom plate (CORNING, Cat. No. 3903) seeded with 5,000 cells in a final volume of 100 μL. Each well 80 μL HeLa cells were incubated overnight at 37°C in EMEM (Invitrogen, Cat. No. 11095098) supplemented with 10% FBS (Invitrogen, Cat. No. 10099-141, Lot. No. 8153379). Then compounds that have been serial diluted were added in corresponding well and 10 μL Recombinant Human IFN-γF (Peprotech, Cat. No. 300-02) was added in each well except wells for Min (Medium containing 0.5% DMSO with cells). The mixture of cells were incubated at 37°C, 5% CO2 for 48 h. Then transferred 90 μL of supernatant to 96-well plate (CORNING, Cat. No. 3599) and store at −20°C fridge for colormetric analysis. The next day, 10 μL of 6.1 N trichloroacetic acid (Sigma, Cat. No. T0699) were added in each well after transferred 80 μL supernatant to 96-well plate (CORNING, Cat. No. 3894). Then the mixture was incubated at 50°C for 30 min. Sediments were removed by centrifuged for 10 min at 2,500 rpm. Seventy microliters of 70 μL of 2% (w/v) p-dimethylaminobenzaldehyde (Sigma-Aldrich, Cat. No. 15647-7) was added after 70 μL of the supernatant were transferred to assay plate (CORNING, Cat. No. 3635). Finally, OD-value was measured at 480 nm using an EnSpire (PE).

T1 sequence (P14902 whole entry): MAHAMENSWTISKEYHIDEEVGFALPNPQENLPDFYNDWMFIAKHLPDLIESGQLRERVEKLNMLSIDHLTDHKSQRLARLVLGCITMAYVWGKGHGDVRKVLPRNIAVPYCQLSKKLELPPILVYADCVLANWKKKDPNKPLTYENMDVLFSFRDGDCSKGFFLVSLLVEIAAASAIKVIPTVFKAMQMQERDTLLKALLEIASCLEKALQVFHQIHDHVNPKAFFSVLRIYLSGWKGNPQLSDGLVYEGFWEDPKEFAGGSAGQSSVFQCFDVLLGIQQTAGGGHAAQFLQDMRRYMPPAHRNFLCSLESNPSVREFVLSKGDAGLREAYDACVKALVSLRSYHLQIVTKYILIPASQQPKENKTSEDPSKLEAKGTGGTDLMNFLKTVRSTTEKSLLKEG
T2 sequence (P14902 whole entry): as above

As to `Cc1ccc(-c2csc3nnc(SCC(=O)Nc4ccc5c(c4)OCO5)n23)cc1` [Amg-1], the IC50 in the test with IDO1 (ref Meininger et al., 2011) was 36 µM.
On to `Clc1ccc(N2COc3ccc4ccccc4c3C2)cc1` [DC-I028], for which, on human IDO1 protein, the inhibition at 20 µM came to 58%, the “Avg_Inh (%) @ 50uM” value came to 82.33%, the IC50 was determined as 21.6 µM and the “Background (%)” value is 55.25%. Besides, on human IDO1 protein (50 μM compound), the “Inhibition ratio (%) @ 50 μM” value is recorded as 82%. Inhibition against IDO1 in HeLa cells was half-maximal at 89.1 µM (IC50).
For the compound `Cc1ccc(Cl)cc1N1COc2ccc3ccccc3c2C1` [DC-I02802], the inhibition at 20 µM on human IDO1 protein came out at 42.2%. Further, the results for the IC50 at human IDO1 protein and at IDO1 in HeLa cells were 44.2 µM and 56 µM, respectively.
The corresponding values for `Cc1ccc([N+](=O)[O-])cc1N1COc2ccc3ccccc3c2C1` [DC-I02804] are 39.1%, 27.8 µM and 98.4 µM.
As for `COc1ccc(C(=O)NC(=S)Nc2c(O)ccc3ccccc23)cc1Br` [DC-I02805], on human IDO1 protein, the inhibition at 20 µM turned out to be 54.7% and half-maximal inhibition (IC50) required 13.7 µM. The “Hela / Cellular IC50” value on IDO1 in HeLa cells is recorded as “No activity”.
`CCOc1cc(C(=O)NC(=S)Nc2c(O)ccc3ccccc23)cc(OCC)c1OCC` [DC-I02806]: on human IDO1 protein, the inhibition at 20 µM came to 75.3% and it took 18.7 µM to reach half-maximal inhibition (IC50). The IC50 on IDO1 in HeLa cells is 18.2 µM.
`O=C(NC(=S)Nc1c(O)ccc2ccccc12)c1ccccc1Br` [DC-I02808]: at human IDO1 protein, the inhibition at 20 µM stood at 61.3% and 17.9 µM corresponded to half-maximal inhibition (IC50). This compound also yielded an IC50 at IDO1 in HeLa cells of 46.4 µM.
`COc1ccc(C2C(C#N)=C(N)Oc3n[nH]c(-c4ccc(Cl)cc4)c32)cc1O` (centres unmarked) [DCI-098]: on human IDO1 protein, the “Avg_Inh (%) @ 50uM” value stood at 4.10% and the “Background (%)” value amounted to 35.87%.
Regarding `Cc1cc2ccccc2n2c(SCC(=O)Nc3ccc(S(N)(=O)=O)cc3)nnc12` [DCI-099], at human IDO1 protein, the “Avg_Inh (%) @ 50uM” value came to 27.63% and the “Background (%)” value came out at 49.90%.
As to `O=S(=O)(c1ccc(N=Cc2c(O)ccc3ccccc23)cc1)N1CCCCC1` [DCI-100], on human IDO1 protein, the “Avg_Inh (%) @ 50uM” value is reported as 94.68% and the “Background (%)” value is reported as 57.16%.
The corresponding values for `c1ccc(CNCC2OCCc3ccccc32)cc1` (centres unmarked) [DCI-101] are -0.96% and 35.16%.
The corresponding values for `CCn1c(SCc2nc3ccccc3[nH]2)nc2cc(C(=O)OC)ccc2c1=O` [DCI-103] are 43.77% and 52.04%.
With `O=C(NCCc1cccc(Cl)c1)c1cccc2ccccc12` [DCI-104], at human IDO1 protein, the “Avg_Inh (%) @ 50uM” value was 25.72% and the “Background (%)” value is 41.51%.
Consider `NS(=O)(=O)NCCNc1nonc1C(=NO)Nc1ccc(F)c(Br)c1` [INCB024360], for which the IC50 with IDO1 (ref Yue et al., 2009) was […].

The IC50 is the point on the concentration scale where inhibition reaches its midpoint.
